PMC6028098, “The N-terminal region of photocleavable peptides that bind HLA-DR1 determines the kinetics of fragment release” (PLoS ONE, 2018)
Read-outs that look alike come from different tables or passages of the source. Ends that are not written are not given here. Peptide text beside a SMILES is read from it.

Key:
[1] = biological target: HLA-DR1 (DRA*01:01/DRB1*01:01) extracellular domain (human); test: fluorescence polarisation
[2] = biological target: T1, HLA-DR1 (DRA*01:01/DRB1*01:01) (Homo sapiens, UniProt P01903+P01911, A100R/D57E/F55L/F60I/F76Y/I96L/L162R/M171V/P40L/Q125E/R42F/V115G/Y59C); test: biochemical; format: binding; conditions: for inhibition at 0.256 µM / inhibition at 1.28 µM / inhibition at 6.4 µM / inhibition at 32 µM / inhibition at 160 µM / inhibition at 0.000256 µM / inhibition at 0.00128 µM / inhibition at 0.0064 µM / inhibition at 0.032 µM / inhibition at 0.16 µM / inhibition at 0.8 µM / inhibition at 4 µM / inhibition at 20 µM: read-out: fraction of labeled HA binding inhibited
T1 construct: HLA-DR1 (DRA*01:01/DRB1*01:01) extracellular domain was expressed in Drosophila S2 cells; made in house

DR1 = DR1 (Homo sapiens, UniProt P01903+P01911, A100R/D57E/F55L/F60I/F76Y/I96L/L162R/M171V/P40L/Q125E/R42F/V115G/Y59C); conditions: binding to DR1, estimated; cited from earlier work
[3] = complex with DR2b, 2 minutes of UV exposure; cited from earlier work
Description: In the only previous report in which a photocleavable peptide was used with a MHC-II protein, the complex studied was DR2b (HLA-DRB1*15:01) with a peptide derived from human myelin basic protein (MBP85-99) with the photocleavable group replacing the residue at P4 position (ENPVVHFXKNIVTPR). […] Thus in this case the peptide is cleaved efficiently and the ...

Y1MxN photocleavable peptide (Ac-YQMxNALAL)
IC50 [1]: 323 nM

CC(=O)N[C@@H](Cc1ccc(O)cc1)C(=O)N[C@H](C(=O)N[C@@H](CCCCN)C(=O)NC(CC(=O)N[C@@H](CC(N)=O)C(=O)N[C@H](C(=O)N[C@@H](CC(C)C)C(=O)N[C@@H](CCCNC(=N)N)C(=O)N[C@@H](CC(C)C)C(=O)N[C@@H](C)C(=O)N[C@H](C(=O)O)[C@@H](C)O)[C@@H](C)O)c1ccccc1[N+](=O)[O-])C(C)C (some centres unmarked) [Ac-photoHA-Δ1–2]
inhibition at 0.256 µM ([2]; 72 h): -1.47% | inhibition at 1.28 µM ([2]; 72 h): -1.61% | inhibition at 6.4 µM ([2]; 72 h): -1.21% | inhibition at 32 µM ([2]; 72 h): 3.82% | inhibition at 160 µM ([2]; 72 h): 39.8%

CSCC[C@H](NC(=O)[C@H](CCC(N)=O)NC(=O)[C@@H](NC(=O)[C@H](Cc1c[nH]cn1)NC(C)=O)C(C)C)C(=O)NC(CC(=O)N[C@@H](CC(N)=O)C(=O)N[C@@H](C)C(=O)N[C@@H](CC(C)C)C(=O)N[C@@H](C)C(=O)N[C@@H](CC(C)C)C(=O)O)c1ccccc1[N+](=O)[O-] (some centres unmarked) [Peptide V1MxN] (HELM PEPTIDE1{[ac].H.V.Q.M.[O=C(CC(N[*:1])c1ccccc1[N+](=O)[O-])[*:2]].N.A.L.A.L}$$$$V2.0)
inhibition at 0.000256 µM ([2]; 72 h): -0.0001% | inhibition at 0.00128 µM ([2]; 72 h): 3% | inhibition at 0.0064 µM ([2]; 72 h): 5.87% | inhibition at 0.032 µM ([2]; 72 h): 4.84% | inhibition at 0.16 µM ([2]; 72 h): 1.29% | inhibition at 0.8 µM ([2]; 72 h): 10.9% | inhibition at 4 µM ([2]; 72 h): 34.5% | inhibition at 20 µM ([2]; 72 h): 92.8% | IC50 ([2]; SD): 5400 ± 341 nM

CC(C)C[C@H](NC(=O)[C@H](CCCNC(=N)N)NC(=O)[C@H](CC(C)C)NC(=O)[C@@H](NC(=O)[C@H](CC(N)=O)NC(=O)CC(NC(=O)[C@H](CCCCN)NC(=O)[C@@H](NC(=O)[C@@H](N)Cc1ccc(O)cc1)C(C)C)c1ccccc1[N+](=O)[O-])[C@@H](C)O)C(=O)N[C@@H](C)C(=O)N[C@H](C(=O)O)[C@@H](C)O (some centres unmarked) [photoHA-Δ1–2]
inhibition at 0.256 µM ([2]; 72 h): -1.94% | inhibition at 1.28 µM ([2]; 72 h): -1.83% | inhibition at 6.4 µM ([2]; 72 h): -1.22% | inhibition at 32 µM ([2]; 72 h): -0.549% | inhibition at 160 µM ([2]; 72 h): 9.88%

HA306-318: immunodominant viral epitope from influenza virus hemagglutinin (Ac-PRYVKQNTLRLAT; not fully specified (residue 5); also: label on K5, type not given here)
Kd (DR1): 13 nM

CSCC[C@H](NC(=O)[C@H](CCC(N)=O)NC(=O)[C@H](CC(C)C)NC(=O)[C@H](Cc1c[nH]cn1)NC(C)=O)C(=O)NC(CC(=O)N[C@@H](CC(N)=O)C(=O)N[C@@H](C)C(=O)N[C@@H](CC(C)C)C(=O)N[C@@H](C)C(=O)N[C@@H](CC(C)C)C(=O)O)c1ccccc1[N+](=O)[O-] (some centres unmarked) [Peptide L1MxN] (HELM PEPTIDE1{[ac].H.L.Q.M.[O=C(CC(N[*:1])c1ccccc1[N+](=O)[O-])[*:2]].N.A.L.A.L}$$$$V2.0)
inhibition at 0.000256 µM ([2]; 72 h): -0.215% | inhibition at 0.00128 µM ([2]; 72 h): -0.407% | inhibition at 0.0064 µM ([2]; 72 h): -1.67% | inhibition at 0.032 µM ([2]; 72 h): -1.44% | inhibition at 0.16 µM ([2]; 72 h): 2.63% | inhibition at 0.8 µM ([2]; 72 h): 13% | inhibition at 4 µM ([2]; 72 h): 49.4% | inhibition at 20 µM ([2]; 72 h): 86.9% | IC50 ([2]; SD): 4100 ± 298 nM

CC(=O)N1CCC[C@H]1C(=O)N[C@@H](CCCNC(=N)N)C(=O)N[C@@H](Cc1ccc(O)cc1)C(=O)N[C@H](C(=O)N[C@@H](CCCCN)C(=O)NC(CC(=O)N[C@@H](CC(N)=O)C(=O)N[C@H](C(=O)N[C@@H](CC(C)C)C(=O)N[C@@H](CCCNC(=N)N)C(=O)N[C@@H](CC(C)C)C(=O)N[C@@H](C)C(=O)N[C@H](C(=O)O)[C@@H](C)O)[C@@H](C)O)c1ccccc1[N+](=O)[O-])C(C)C (some centres unmarked) [Ac-photoHA]
inhibition at 0.256 µM ([2]; 72 h): -1.71% | inhibition at 1.28 µM ([2]; 72 h): -3.02% | inhibition at 6.4 µM ([2]; 72 h): -0.583% | inhibition at 32 µM ([2]; 72 h): 10% | inhibition at 160 µM ([2]; 72 h): 59% | IC50 ([2]; competition with 25 nM Alexa488-labeled HA for DR1 (100 nM per method, 150 nM per Fig 7/8 legends), 37°C, 72 h, fluorescence polarization, mean ± SD of two experiments, SD, read-out: IC50): 134 ± 2 nM

CC(C)C[C@H](NC(=O)[C@H](CCCNC(=N)N)NC(=O)[C@H](CC(C)C)NC(=O)[C@@H](NC(=O)[C@H](CC(N)=O)NC(=O)CC(NC(=O)[C@H](CCCCN)NC(=O)[C@@H](NC(=O)[C@H](Cc1ccc(O)cc1)NC(=O)[C@H](CCCNC(=N)N)NC(=O)[C@@H]1CCCN1)C(C)C)c1ccccc1[N+](=O)[O-])[C@@H](C)O)C(=O)N[C@@H](C)C(=O)N[C@H](C(=O)O)[C@@H](C)O (some centres unmarked) [photoHA]
inhibition at 0.256 µM ([2]; 72 h): -1.65% | inhibition at 1.28 µM ([2]; 72 h): -2.9% | inhibition at 6.4 µM ([2]; 72 h): -1.3% | inhibition at 32 µM ([2]; 72 h): 22.2% | inhibition at 160 µM ([2]; 72 h): 66.3% | IC50 ([2]; SD): 92 ± 2 nM

V1MxN photocleavable peptide (Ac-HVQMxNALAL)
IC50 [1]: 5400 nM

L1MxN photocleavable peptide (Ac-HLQMxNALAL)
IC50 [1]: 4100 nM

ENPVVHFXKNIVTPR
parent peptide after UV exposure [3]: almost undetectable

Ac-PRYVKQNTLRLAT [HA, reference compound]
inhibition at 0.0064 µM ([2]; 72 h): 7.96% | inhibition at 0.032 µM ([2]; 72 h): 48.7% | inhibition at 0.16 µM ([2]; 72 h): 70.6% | inhibition at 0.256 µM ([2]; 72 h): -1.7% | inhibition at 0.8 µM ([2]; 72 h): 95% | inhibition at 1.28 µM ([2]; 72 h): -1.55% | inhibition at 4 µM ([2]; 72 h): 99% | inhibition at 6.4 µM ([2]; 72 h): -0.259% | inhibition at 20 µM ([2]; 72 h): 104% | inhibition at 32 µM ([2]; 72 h): 29.5% | inhibition at 160 µM ([2]; 72 h): 76.5% | IC50 ([2]; competition with 25 nM Alexa488-labeled HA for DR1 (100 nM per method, 150 nM per Fig 7/8 legends), 37°C, 72 h, fluorescence polarization, mean ± SD of two experiments, read-out: IC50): 40 nM

CSCC[C@H](NC(=O)[C@H](CCC(N)=O)NC(=O)[C@H](Cc1ccc(O)cc1)NC(C)=O)C(=O)NC(CC(=O)N[C@@H](CC(N)=O)C(=O)N[C@@H](C)C(=O)N[C@@H](CC(C)C)C(=O)N[C@@H](C)C(=O)N[C@@H](CC(C)C)C(=O)O)c1ccccc1[N+](=O)[O-] (some centres unmarked) [Peptide Y1MxN] (HELM PEPTIDE1{[ac].Y.Q.M.[O=C(CC(N[*:1])c1ccccc1[N+](=O)[O-])[*:2]].N.A.L.A.L}$$$$V2.0)
inhibition at 0.000256 µM ([2]; 72 h, Fig 2, [Pep] 0.000256 uM, 100 nM DR1, 25 nM Alexa488-labeled HA, 3 days, FP, mean of two experiments in triplicate): -1.47% | inhibition at 0.00128 µM ([2]; 72 h, Fig 2, [Pep] 0.00128 uM, 100 nM DR1, 25 nM Alexa488-labeled HA, 3 days, FP, mean of two experiments in triplicate): 4.96% | inhibition at 0.0064 µM ([2]; 72 h, Fig 2, [Pep] 0.0064 uM, 100 nM DR1, 25 nM Alexa488-labeled HA, 3 days, FP, mean of two experiments in triplicate): -1.42% | inhibition at 0.032 µM ([2]; 72 h, Fig 2, [Pep] 0.032 uM, 100 nM DR1, 25 nM Alexa488-labeled HA, 3 days, FP, mean of two experiments in triplicate): 13.4% | inhibition at 0.16 µM ([2]; 72 h, Fig 2, [Pep] 0.16 uM, 100 nM DR1, 25 nM Alexa488-labeled HA, 3 days, FP, mean, n = 3): 39.7% | inhibition at 0.8 µM ([2]; 72 h, Fig 2, [Pep] 0.8 uM, 100 nM DR1, 25 nM Alexa488-labeled HA, 3 days, FP, mean of two experiments in triplicate): 69.7% | inhibition at 4 µM ([2]; 72 h, Fig 2, [Pep] 4 uM, 100 nM DR1, 25 nM Alexa488-labeled HA, 3 days, FP, mean of two experiments in triplicate): 90% | inhibition at 20 µM ([2]; 72 h, Fig 2, [Pep] 20 uM, 100 nM DR1, 25 nM Alexa488-labeled HA, 3 days, FP, mean of two experiments in triplicate): 96.1%
